Results reported in patent publication US12240840B2, “Amide-substituted heterocyclic compounds for the treatment of conditions related to the modulation of IL-12, IL-23 and/or IFN-alpha” (BRISTOL-MYERS SQUIBB COMPANY, priority 2018, dated 2025).

Tested on: IFNα-induced pSTAT5 (pY694) in CD3 positive cells of human whole blood
Assay: IFNα-Induced STAT Phosphorylation in Human Whole Blood
Type: cell-based
Conditions: Homo sapiens, 1 h compound incubation, 1000 U/mL recombinant human IFNα A/D for 15 min, pSTAT5 in CD3 positive population, read-out: Human WB IFNα-Induced Stat Phosph. (IC50)
Procedure, shortened: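 Read-out is median fluorescence intensity of pSTAT5 (pY694) in the CD3-positive gate, by flow cytometry after fix/lyse and permeabilization. Before that, whole human blood anticoagulated with EDTA or ACD-A received compound for an hour and 1000 U/mL IFNα A/D for 15 min.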

Row | IC50 [µM] | SMILES
1 | 0.63 | [2H]C([2H])([2H])NC(=O)c1nnc(NC(=O)C2CC2)cc1Nc1cccc(-c2nc([C@H](C)N)no2)c1OC [Example 181]
2 | 2.01 | [2H]C([2H])([2H])NC(=O)c1nnc(NC(=O)C2CC2)cc1Nc1cccc(-c2nc([C@H](C)NC(=O)OC)no2)c1OC [Example 182]
3 | 1.68 | [2H]C([2H])([2H])NC(=O)c1nnc(NC(=O)C2CC2)cc1Nc1cccc(-c2nc([C@H](C)NC(C)=O)no2)c1OC [Example 183]
4 | 0.13 | [2H]C([2H])([2H])NC(=O)c1nnc(NC(=O)C2CC2)cc1Nc1cccc(-c2nc([C@H](C)NS(C)(=O)=O)no2)c1OC [Example 184]
5 | 0.79 | [2H]C([2H])([2H])NC(=O)c1nnc(NC(=O)C2CC2)cc1Nc1cccc(-c2nc(C(C)(C)O)no2)c1OC [Example 186]
6 | 1.13 | [2H]C([2H])([2H])NC(=O)c1nnc(NC(=O)C2CC2)cc1Nc1cccc(-c2nc([C@@H](NC(C)=O)[C@@H](C)O)no2)c1OC [Example 187]
7 | 1.27 | [2H]C([2H])([2H])NC(=O)c1nnc(NC(=O)C2CC2)cc1Nc1cccc(-c2nc([C@@H](NC(=O)OC)[C@@H](C)O)no2)c1OC [Example 188]
8 | 0.1 | [2H]C([2H])([2H])NC(=O)c1nnc(NC(=O)C2CC2)cc1Nc1cccc(-c2nc([C@@H](N)[C@@H](C)O)no2)c1OC [Example 189]
9 | 2.36 | [2H]C([2H])([2H])NC(=O)c1nnc(NC(=O)C2CC2)cc1Nc1cccc(-c2nc([C@@H](NC(=O)CC)[C@@H](C)O)no2)c1OC [Example 190]
10 | 0.41 | [2H]C([2H])([2H])NC(=O)c1nnc(NC(=O)C2CC2)cc1Nc1cccc(-c2nc([C@@H](C)N)no2)c1OC [Example 191]
11 | 0.87 | [2H]C([2H])([2H])NC(=O)c1nnc(NC(=O)C2CC2)cc1Nc1cccc(-c2nc([C@@H](C)NC(=O)OC)no2)c1OC [Example 192]
12 | 7.36 | [2H]C([2H])([2H])NC(=O)c1nnc(NC(=O)C2CC2)cc1Nc1cccc(-c2nc([C@@H](C)NC(=O)OC(C)(C)C)no2)c1OC [Example 193]
13 | 0.16 | [2H]C([2H])([2H])NC(=O)c1nnc(NC(=O)C2CC2)cc1Nc1cccc(-c2nc([C@@H](C)NC(C)=O)no2)c1OC [Example 194]
14 | 0.72 | [2H]C([2H])([2H])NC(=O)c1nnc(NC(=O)C2CC2)cc1Nc1cccc(-c2nc([C@@H](C)NS(C)(=O)=O)no2)c1OC [Example 195]
15 | 1.18 | [2H]C([2H])([2H])NC(=O)c1nnc(NC(=O)C2CC2)cc1Nc1cccc(-c2nc([C@@H](C)NC(=O)CC)no2)c1OC [Example 196]
16 | 1.65 | [2H]C([2H])([2H])NC(=O)c1nnc(NC(=O)C2CC2)cc1Nc1cccc(-c2nc([C@H](CO)NC(=O)CC)no2)c1OC [Example 198]
17 | 1.08 | [2H]C([2H])([2H])NC(=O)c1nnc(NC(=O)C2CC2)cc1Nc1cccc(-c2nc([C@H](CO)NC(C)=O)no2)c1OC [Example 199]
18 | 0.76 | [2H]C([2H])([2H])NC(=O)c1nnc(NC(=O)C2CC2)cc1Nc1cccc(-c2nc([C@H](COC(C)=O)NC(C)=O)no2)c1OC [Example 200]
19 | 0.29 | [2H]C([2H])([2H])NC(=O)c1nnc(NC(=O)C2CC2)cc1Nc1cccc(-c2nc([C@@H](N)CO)no2)c1OC [Example 201]
20 | 0.46 | [2H]C([2H])([2H])NC(=O)c1nnc(NC(=O)C2CC2)cc1Nc1cccc(-c2nc([C@H](NC(C)=O)[C@H](C)O)no2)c1OC [Example 203]
21 | 0.14 | [2H]C([2H])([2H])NC(=O)c1nnc(NC(=O)C2CC2)cc1Nc1cccc(-c2nc([C@H](N)[C@H](C)O)no2)c1OC [Example 204]
22 | 0.85 | [2H]C([2H])([2H])NC(=O)c1nnc(NC(=O)C2CC2)cc1Nc1cccc(-c2nc([C@H](NC(=O)COC)[C@H](C)O)no2)c1OC [Example 205]
23 | 1.27 | [2H]C([2H])([2H])NC(=O)c1nnc(NC(=O)C2CC2)cc1Nc1cccc(-c2nc([C@H](NC(=O)CC)[C@H](C)O)no2)c1OC [Example 208]
24 | 0.2 | [2H]C([2H])([2H])NC(=O)c1nnc(NC(=O)C2CC2)cc1Nc1cccc(-c2nc([C@@H](CO)NC(C)=O)no2)c1OC [Example 220]
25 | 0.16 | [2H]C([2H])([2H])NC(=O)c1nnc(NC(=O)C2CC2)cc1Nc1cccc(-c2nc([C@H](N)CO)no2)c1OC [Example 221]

Second part, the molecule before the results:

Row | SMILES | IC50 [µM]
26 | [2H]C([2H])([2H])NC(=O)c1nnc(NC(=O)C2CC2)cc1Nc1cccc(-c2nc(CC(=O)N3CCOCC3)no2)c1OC [Example 179] | 0.29
27 | [2H]C([2H])([2H])NC(=O)c1nnc(NC(=O)C2CC2)cc1Nc1cccc(-c2nc(CN3CCN(C)CC3)no2)c1OC [Example 180] | 0.2
28 | [2H]C([2H])([2H])NC(=O)c1nnc(NC(=O)C2CC2)cc1Nc1cccc(-c2nc([C@@H](NC(=O)OC(C)(C)C)[C@@H](C)OC(C)(C)C)no2)c1OC [Example 185] | > 10
29 | [2H]C([2H])([2H])NC(=O)c1nnc(NC(=O)C2CC2)cc1Nc1cccc(-c2nc([C@H](COC(C)(C)C)NC(=O)OC(C)(C)C)no2)c1OC [Example 197] | 6.2
30 | [2H]C([2H])([2H])NC(=O)c1nnc(NC(=O)C2CC2)cc1Nc1cccc(-c2nc([C@H](CO)NC(=O)COC)no2)c1OC [Example 202] | 1.8
31 | [2H]C([2H])([2H])NC(=O)c1nnc(NC(=O)C2CC2)cc1Nc1cccc(-c2nc([C@H](NC(=O)OC(C)(C)C)[C@H](C)OC(C)(C)C)no2)c1OC [Example 206] | > 10
32 | [2H]C([2H])([2H])NC(=O)c1nnc(NC(=O)C2CC2)cc1Nc1cccc(-c2nc(CN3CCC(O)CC3)no2)c1OC [Example 207] | 0.48
33 | [2H]C([2H])([2H])NC(=O)c1nnc(NC(=O)C2CC2)cc1Nc1cccc(-c2nc(CN3CCCC3)no2)c1OC [Example 209] | 1.37
34 | [2H]C([2H])([2H])NC(=O)c1cnc(NC(=O)C2CC2)cc1Nc1cccc(-c2nc(CN3C[C@@H](C)O[C@@H](C)C3)no2)c1OC [Example 210] | 0.22
35 | [2H]C([2H])([2H])NC(=O)c1nnc(NC(=O)C2CC2)cc1Nc1cccc(-c2nc(CN3CCC(C)CC3)no2)c1OC [Example 211] | 0.44
36 | [2H]C([2H])([2H])NC(=O)c1cnc(NC(=O)C2CC2)cc1Nc1cccc(-c2nc(C3(N)CC3)no2)c1OC [Example 212] | 0.32
37 | [2H]C([2H])([2H])NC(=O)c1cnc(NC(=O)C2CC2)cc1Nc1cccc(-c2nc(C3(NC(=O)OC(C)(C)C)CC3)no2)c1OC [Example 213] | 4.44
38 | [2H]C([2H])([2H])NC(=O)c1cnc(NC(=O)C2CC2)cc1Nc1cccc(-c2nc(C3(NC(C)=O)CC3)no2)c1OC [Example 214] | 0.39
39 | [2H]C([2H])([2H])NC(=O)c1cnc(NC(=O)C2CC2)cc1Nc1cccc(-c2nc(CN3CCCC3)no2)c1OC [Example 215] | 0.15
40 | [2H]C([2H])([2H])NC(=O)c1cnc(NC(=O)C2CC2)cc1Nc1cccc(-c2nc(COCc3ccccc3)no2)c1OC [Example 216] | 0.32
41 | [2H]C([2H])([2H])NC(=O)c1cnc(NC(=O)C2CC2)cc1Nc1cccc(-c2nc(CO)no2)c1OC [Example 217] | 0.18

Row | SMILES | IC50 [µM]
42 | [2H]C([2H])([2H])NC(=O)c1cnc(NC(=O)C2CC2)cc1Nc1cccc(-c2nc(C(C)(C)O)no2)c1OC [Example 218] | 0.39
43 | [2H]C([2H])([2H])NC(=O)c1nnc(NC(=O)C2CC2)cc1Nc1cccc(-c2nc([C@@H](COC(C)(C)C)NC(=O)OC(C)(C)C)no2)c1OC [Example 219] | 5.24
44 | [2H]C([2H])([2H])NC(=O)c1cnc(NC(=O)C2CC2)cc1Nc1cccc(-c2nc(C(C)N3CCN(C(C)=O)CC3)no2)c1OC (stereo not drawn) [Example 222] | 1.48
45 | [2H]C([2H])([2H])NC(=O)c1cnc(NC(=O)C2CC2)cc1Nc1cccc(-c2nc(C(C)N3CCN(S(C)(=O)=O)CC3)no2)c1OC (stereo not drawn) [Example 223] | 0.69
46 | [2H]C([2H])([2H])NC(=O)c1nnc(NC(=O)C2CC2)cc1Nc1cccc(-c2nc(C(OCC)OCC)no2)c1OC [Example 224] | 0.88
47 | [2H]C([2H])([2H])NC(=O)c1nnc(NC(=O)C2CC2)cc1Nc1cccc(-c2nc(CCO)no2)c1OC [Example 225] | 0.35
48 | [2H]C([2H])([2H])NC(=O)c1nnc(NC(=O)C2CC2)cc1Nc1cccc(-c2nc(CCOC(C)(C)C)no2)c1OC [Example 226] | 1.16
49 | [2H]C([2H])([2H])NC(=O)c1cnc(NC(=O)C2CC2)cc1Nc1cccc(-c2nc(CCOC(C)(C)C)no2)c1OC [Example 227] | 0.62
50 | [2H]C([2H])([2H])NC(=O)c1cnc(NC(=O)C2CC2)cc1Nc1cccc(-c2nc(CCO)no2)c1OC [Example 228] | 0.18
51 | [2H]C([2H])([2H])NC(=O)c1nnc(NC(=O)C2CC2)cc1Nc1cccc(-c2nc(CC=C)no2)c1OC [Example 229] | > 10
52 | [2H]C([2H])([2H])NC(=O)c1nnc(NC(=O)C2CC2)cc1Nc1cc(F)cc(-c2nc(CN3CCOCC3)no2)c1OC [Example 230] | 0.51
53 | [2H]C([2H])([2H])NC(=O)c1nnc(NC(=O)C2CC2)cc1Nc1cccc(-c2nc(CN3CC4CN(C(=O)OC(C)(C)C)CC4C3)no2)c1OC (stereo not drawn) [Example 231] | 1.75
54 | [2H]C([2H])([2H])NC(=O)c1nnc(NC(=O)C2CC2)cc1Nc1cccc(-c2nc(CN3CC4CNCC4C3)no2)c1OC (stereo not drawn) [Example 232] | 6.51
55 | [2H]C([2H])([2H])NC(=O)c1nnc(NC(=O)C2CC2)cc1Nc1cccc(-c2nc(CN3CC4CN(C(C)=O)CC4C3)no2)c1OC (stereo not drawn) [Example 233] | 0.1
56 | [2H]C([2H])([2H])NC(=O)c1nnc(NC(=O)C2CC2)cc1Nc1cccc(-c2nc(CN3CC4CN(C(=O)OC)CC4C3)no2)c1OC (stereo not drawn) [Example 234] | 0.3
57 | [2H]C([2H])([2H])NC(=O)c1nnc(NC(=O)C2CC2)cc1Nc1cccc(-c2nc(CN3CC4CN(S(C)(=O)=O)CC4C3)no2)c1OC (stereo not drawn) [Example 235] | 0.05
